Data as given in PMC7710018, “Restoration of motor learning in a mouse model of Rett syndrome following long-term treatment with a novel small-molecule activator of TrkB” (Disease Models & Mechanisms, 2020).
Read-outs that look alike come from different tables or passages of the source.

Experiments:
[1] = test system: heterozygous (Het) female Mecp2 mutant mice; assay: Phenotype severity score; format: in vivo, mouse; settings: for group average phenotype severity score: 5 mg/kg q72 hrs
Method: Group Pre‐Treatment Week 2 Week 4 Week 6 Week 8
Table S3. Group average bi-weekly phenotype severity scores after repeated dosing with PTX-BD4-3 (5 mg/kg, q72 hrs). Animals were assigned aggregate scores of phenotypic severity based on visual assessments of mobility, hind limb clasping, gait analysis, tremors, respiration and overall physical condition (scoring range = 0-12; Guy et al., 2007). The phenotype severity scores of Het animals […]
(also on this page, place not known: tr eatment Disease Models & Mechanisms: doi:10.1242/dmm.044685: Supplementary information Disease Models & Mechanisms • Supplementary information) […]

H2 (h) = molecular target: T1, H2 (h) (Homo sapiens, UniProt P25021); assay: Cerep ExpresSProfile radioligand binding; settings: 10 micromolar; antagonist radioligand; read-out: % Inhibition of Control Specific Binding 1st
T1 construct: purchased Cerep (ExpresSProfile)
T1 sequence (P25021 whole entry): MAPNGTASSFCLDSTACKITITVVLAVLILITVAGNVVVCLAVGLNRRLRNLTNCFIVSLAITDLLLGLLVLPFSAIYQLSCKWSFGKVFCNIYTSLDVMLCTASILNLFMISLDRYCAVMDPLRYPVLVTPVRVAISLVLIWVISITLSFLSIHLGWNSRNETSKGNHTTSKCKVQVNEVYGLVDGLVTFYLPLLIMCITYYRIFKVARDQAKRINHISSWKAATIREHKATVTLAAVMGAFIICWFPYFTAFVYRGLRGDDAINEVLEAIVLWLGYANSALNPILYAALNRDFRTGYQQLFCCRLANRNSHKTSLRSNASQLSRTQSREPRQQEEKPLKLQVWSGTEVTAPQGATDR
Method: (§1) To evaluate the relative binding specificity of LM22A-4 ([Massa et al., 2010]) and PTX-BD4-3, binding to a broad range of 55 pharmacologically relevant receptors, including numerous neurotransmitter and G-protein coupled receptors was assessed using standard radioligand competition binding assays (ExpressSProfile) performed by Cerep, Inc. (Seattle, WA, USA). In addition, ADME-Tox analysis was performed by Cerep, Inc. All experimental conditions are described on the Cerep website (www.cerep.fr). […]
(§2) Table S1. In vitro binding assays. An ExpresSProfile screen of PTX-BD4-3 binding to a panel of pharmacologically relevant receptors was conducted by Cerep, Inc.
(§3) (Eurofins Panlabs, MO). The results are expressed as percent inhibition of control specific binding obtained in the presence of 10 micromolar PTX-BD4-3. In this assay, values below 50% indicate no specific binding of PTX-BD4-3. The assay was negative for PTX-BD4-3 binding to all of the 55 receptors in the screen.
(§4) (also on this page, place not known: 2B 5‐HT 3 5‐HT 5a 5‐HT 6 5‐HT 7 (agonis t VPAC 1 V 1 Ca 2+ K V SK Ca Na + Cl ‐ 5‐HT Disease Models & Mechanisms: doi:10.1242/dmm.044685: Supplementary information Disease Models & Mechanisms • Supplementary information)

κ (KOP) = molecular target: T2, κ (KOP) (Rattus norvegicus, UniProt P34975); assay: Cerep ExpresSProfile radioligand binding; settings: 10 micromolar; agonist radioligand; read-out: % Inhibition of Control Specific Binding 1st
T2 construct: purchased Cerep (ExpresSProfile)
T2 sequence (P34975 whole entry): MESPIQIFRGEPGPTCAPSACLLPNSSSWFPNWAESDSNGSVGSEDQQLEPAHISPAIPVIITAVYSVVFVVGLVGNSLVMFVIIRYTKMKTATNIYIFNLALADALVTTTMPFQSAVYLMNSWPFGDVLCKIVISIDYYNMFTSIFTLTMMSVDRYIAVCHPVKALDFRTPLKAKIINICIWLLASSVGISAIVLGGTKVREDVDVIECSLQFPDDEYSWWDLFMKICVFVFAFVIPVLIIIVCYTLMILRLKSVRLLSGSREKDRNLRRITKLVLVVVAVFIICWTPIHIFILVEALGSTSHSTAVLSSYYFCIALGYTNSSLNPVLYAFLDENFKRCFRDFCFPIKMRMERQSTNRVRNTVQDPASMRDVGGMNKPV
Method: as §1, §2, §3, §4

[2] = molecular target: T3, norepinephrine transporter (h) (Homo sapiens, UniProt P23975); assay: Cerep ExpresSProfile radioligand binding; settings: 10 micromolar, antagonist radioligand
T3 construct: Cerep, Inc. (contract screen)
T3 sequence (P23975 whole entry): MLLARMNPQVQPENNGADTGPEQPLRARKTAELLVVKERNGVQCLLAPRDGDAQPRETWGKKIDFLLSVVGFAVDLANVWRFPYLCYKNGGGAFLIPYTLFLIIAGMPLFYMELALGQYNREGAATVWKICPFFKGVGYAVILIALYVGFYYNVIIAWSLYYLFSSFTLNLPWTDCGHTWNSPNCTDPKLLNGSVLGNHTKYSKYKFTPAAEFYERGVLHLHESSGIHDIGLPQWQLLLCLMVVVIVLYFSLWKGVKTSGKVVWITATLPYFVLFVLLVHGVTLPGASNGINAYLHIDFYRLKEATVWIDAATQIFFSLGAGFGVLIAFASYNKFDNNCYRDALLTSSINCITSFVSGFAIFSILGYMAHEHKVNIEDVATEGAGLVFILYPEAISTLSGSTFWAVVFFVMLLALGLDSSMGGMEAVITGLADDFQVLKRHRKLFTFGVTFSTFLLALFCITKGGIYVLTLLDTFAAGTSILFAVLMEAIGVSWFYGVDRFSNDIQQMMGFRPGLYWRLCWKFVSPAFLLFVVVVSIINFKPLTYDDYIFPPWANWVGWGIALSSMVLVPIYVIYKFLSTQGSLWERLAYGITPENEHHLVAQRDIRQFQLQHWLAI
Method: as §1, §2, §3, §4

KV channel = assay: Cerep ExpresSProfile radioligand binding; settings: 10 micromolar; antagonist radioligand
Method: as §1, §2, §3, §4

Na+ channel (site 2) = assay: Cerep ExpresSProfile radioligand binding; settings: 10 micromolar; antagonist radioligand
Method: as §1, §2, §3, §4

α1 (non-selective) = assay: Cerep ExpresSProfile radioligand binding; settings: 10 micromolar; antagonist radioligand
Method: as §1, §2, §3, §4

β1 (h) = molecular target: T4, β1 (h) (Homo sapiens, UniProt P08588); assay: Cerep ExpresSProfile radioligand binding; settings: 10 micromolar; agonist radioligand; read-out: % Inhibition of Control Specific Binding 1st
T4 construct: purchased Cerep (ExpresSProfile)
T4 sequence (P08588 whole entry): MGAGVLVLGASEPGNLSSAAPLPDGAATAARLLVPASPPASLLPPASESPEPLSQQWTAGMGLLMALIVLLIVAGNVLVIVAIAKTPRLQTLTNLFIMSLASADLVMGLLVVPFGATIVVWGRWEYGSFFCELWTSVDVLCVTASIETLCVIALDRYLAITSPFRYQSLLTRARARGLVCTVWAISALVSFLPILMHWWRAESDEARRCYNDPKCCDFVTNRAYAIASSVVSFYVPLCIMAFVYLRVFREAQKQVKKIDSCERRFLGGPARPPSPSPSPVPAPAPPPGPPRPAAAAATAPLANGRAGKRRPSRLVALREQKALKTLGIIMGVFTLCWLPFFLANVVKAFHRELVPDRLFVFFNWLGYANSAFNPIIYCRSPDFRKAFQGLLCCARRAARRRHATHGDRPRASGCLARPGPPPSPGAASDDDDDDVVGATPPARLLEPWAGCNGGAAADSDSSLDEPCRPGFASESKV
Method: as §1, §2, §3, §4

M1 (h) = molecular target: T5, M1 (h) (Homo sapiens, UniProt P11229); assay: Cerep ExpresSProfile radioligand binding; settings: 10 micromolar, antagonist radioligand
T5 construct: purchased Cerep (ExpresSProfile)
T5 sequence (P11229 1-460): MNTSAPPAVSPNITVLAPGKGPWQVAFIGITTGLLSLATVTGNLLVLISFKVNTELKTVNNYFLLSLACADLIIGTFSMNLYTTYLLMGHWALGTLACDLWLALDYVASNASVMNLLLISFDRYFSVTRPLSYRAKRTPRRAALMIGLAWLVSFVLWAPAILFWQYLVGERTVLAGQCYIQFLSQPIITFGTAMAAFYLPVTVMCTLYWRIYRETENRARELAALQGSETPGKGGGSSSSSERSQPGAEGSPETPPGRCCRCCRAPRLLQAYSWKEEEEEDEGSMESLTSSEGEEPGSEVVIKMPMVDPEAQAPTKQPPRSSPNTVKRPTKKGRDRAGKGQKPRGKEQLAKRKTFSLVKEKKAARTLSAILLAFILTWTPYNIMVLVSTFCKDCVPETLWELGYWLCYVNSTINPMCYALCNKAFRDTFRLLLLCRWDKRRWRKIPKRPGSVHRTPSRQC
Method: as §1, §2, §3, §4

sst (non-selective) = assay: Cerep ExpresSProfile radioligand binding; settings: 10 micromolar; agonist radioligand
Method: as §1, §2, §3, §4

[3] = test system: heterozygous (Het) female Mecp2 mutant mice; assay: Rotarod; format: in vivo, mouse; settings: 5 mg/kg q72 h
Method: Small-molecule compounds were diluted in saline and delivered by i.p. injection. To define the acute effects of single drug treatments, behavioral testing was initiated 1 h after dosing. Durable effects of single drug treatments were evaluated 24 h after dosing. […]
A Rotarod apparatus (Columbus Instruments) was used test to assess sensorimotor coordination. Animals were placed on a rotating rod at a constant speed of 4 rpm for 1 min of acclimation. […] Latency of the animal to fall was recorded. The test was repeated three times, with each trial separated by 15 min, to assess potential learning components of any observed phenotypes.

[4] = test system: heterozygous (Het) female Mecp2 mutant mice; assay: Whole-body plethysmography (apnea index); format: in vivo, mouse
Method: Small-molecule compounds were diluted in saline and delivered by i.p. injection. To define the acute effects of single drug treatments, behavioral testing was initiated 1 h after dosing. Durable effects of single drug treatments were evaluated 24 h after dosing. To define the effects of repeated dosing, mice were treated once every 3 days (q72 h) for 4 or 8 weeks, and behavioral testing was performed 24 h after the last dose.
Breathing was recorded in unrestrained Wt and Het mice using a whole-body plethysmograph (EMMS Systems), in which a constant bias flow supply connected to the animal recording chamber ensured continuous inflow of fresh air (1 l/min) and ambient temperature was maintained between 23°C and 25°C. Animals were allowed to acclimate in the recording chambers for 30 min, and respiratory data were collected for the next 3 h. Because respiration is strongly influenced by behavioral state, data were only analyzed from periods of quiet breathing, which was defined as periods when the animal was not moving and had all four paws on the chamber floor. In most experiments, aggregated episodes of quiet breathing totaling at least 10 min were used for analysis. […] Apneas were defined as breathing pauses longer than 2× the average total breath duration (Ttot) measured during quiet breathing and are reported here as apneas/min (apnea index).

[5] = read-out: % Inhibition of Control Specific Binding 1st
[6] = read-out: % Inhibition of Control Specific Binding 2nd
[7] = read-out: % Inhibition of Control Specific Binding Mean

COCCN(C)C(=O)c1cc(C(=O)N(C)CCOC)cc(C(=O)N(C)CCOC)c1 [PTX-BD4-3, benzene-1,3,5-tricarboxylic acid tris-[(2-methoxy-ethyl)-methyl-amide]]
change of global phenotypic severity scores over the time course ([1]; 5 mg/kg q72 h, pre-treatment vs 8 weeks): did not increase significantly | group average phenotype severity score ([1]; Week 2, scoring range 0-12, pre-treatment 2.73): 3.46 | group average phenotype severity score ([1]; Week 4, scoring range 0-12): 3.66 | group average phenotype severity score ([1]; Week 6, scoring range 0-12): 4.33 | group average phenotype severity score ([1]; Week 8, scoring range 0-12): 3.66 | inhibition at 10 µM (H2 (h)): 2.8% | inhibition at 10 µM (κ (KOP)): 0.9% | inhibition at 10 µM [2, 5]: 5.1% | inhibition at 10 µM [2, 6]: 1.1% | inhibition at 10 µM [2, 7]: 3.1% | % Inhibition of Control Specific Binding 1st (KV channel): 6.4% | % Inhibition of Control Specific Binding 1st (Na+ channel (site 2)): 0.6% | % Inhibition of Control Specific Binding 2nd (Na+ channel (site 2)): 11.7% | % Inhibition of Control Specific Binding Mean (Na+ channel (site 2)): 6.1% | % Inhibition of Control Specific Binding 1st (α1 (non-selective)): 0.9% | inhibition at 10 µM (β1 (h)): 3.7% | inhibition at 10 µM (M1 (h); [5]): 5% | inhibition at 10 µM (M1 (h); [6]): 15% | inhibition at 10 µM (M1 (h); [7]): 10% | % Inhibition of Control Specific Binding 1st (sst (non-selective)): 5.7% | % Inhibition of Control Specific Binding Mean (sst (non-selective)): 0.3% | Rotarod performance (latency to fall) ([3]; 2 weeks, repeated testing, 24 h after last dose): as impaired as their saline-treated Het littermates | Rotarod performance (latency to fall) ([3]; 8 weeks, repeated testing at 2, 4, 8 weeks, 24 h after last dose): comparable to that of saline-treated Wt controls | Rotarod performance (latency to fall) ([3]; 8 weeks, tested only at the end of treatment, vs saline-treated Het): no improvement | apnea index ([4]; Het mice, 5 mg/kg i.p. q72 h for 4 weeks, 24 h after last dose, vs saline-treated Het): significantly reduced | apnea index ([4]; Het mice, 5 mg/kg i.p. q72 h for 8 weeks, 24 h after last dose, vs saline-treated Het): significantly reduced | apnea index ([4]; single dose 5 mg/kg i.p., drug-naïve mice at 24 weeks of age, 24 h after dosing): no change
